Data published in patent US20090028943A1, “PHARMACEUTICAL COMPOSITIONS” (priority 2005, published 2009).

Assays:
[1] = stability of AZD2171 (hydrolysis, oxidation); format: physicochemical
From the text: In order to counteract the plasticity of a drug such as AZD2171 a person skilled in the art would typically try to modify the material's properties with the addition of a complementary excipient such as a brittle filler. However this can limit the drug loading that can be achieved in a formulation, i.e. the percentage of active ingredient therein, and can lead to very large tablets which are difficult to swallow. […] Initial test formulations of AZD2171 were therefore limited to the use of two […] fillers namely lactose and mannitol. The test formulations comprised: […]

Calu-6 tumour xenograft = experiment: in vivo solid tumour model; settings: once-daily oral, 28 days
range of models = settings: once-daily oral administration; cited from earlier work
[2] = tested on: VEGF-stimulated endothelial cell proliferation (HUVEC); experiment: HUVEC assay, VEGF-stimulated proliferation; format: cell-based; settings: Homo sapiens
[3] = tested on: basal endothelial cell proliferation (HUVEC); experiment: HUVEC assay, basal proliferation; format: cell-based; settings: Homo sapiens

compatibility with brittle filler dibasic calcium phosphate dihydrate [1]: showed hydrolysis
stability ([1]; degradation by hydrolysis and oxidation): relatively poor stability
Structure (SMILES): COc1cc2c(Oc3ccc4[nH]c(C)cc4c3F)ncnc2cc1OCCCN1CCCC1 [AZD2171, 4-(4-fluoro-2-methyl-1H-indol-5-yloxy)-6-methoxy-7-(3-(pyrrolidin-1-yl)propoxy)quinazoline]
inhibition of growth of Calu-6 tumour xenograft (Calu-6 tumour xenograft; 1.5 mg/kg/day): 49%
inhibition of growth of Calu-6 tumour xenograft (Calu-6 tumour xenograft; 3 mg/kg/day): 69%
inhibition of growth of Calu-6 tumour xenograft (Calu-6 tumour xenograft; 6 mg/kg/day): 91%
anti-tumour activity in a range of models (range of models): broad-spectrum anti-tumour activity
IC50 [2]: 0.4 ± 0.2 nM
IC50 [3]: > 500 nM
